Where no end group is shown, it is not given here.
Tests used:
[1] = mouse, in vivo, sc
Experimental: In order to investigate this assumption, fluorescence-labeled compounds were injected together subcutaneously into the flank of mice. At different time points after this treatment, injection sites were inspected for the presence of labeled compounds.
Experimental Groups (1 Mouse/Group 1/Indicated Time Point, 3 Mice/Group 2–4/time Point) • 1. untreated • 2. TRP-2181-188-FITC • 3. pR60-TRITC • 4. CpG-ODN1668-Cy5 • 5. TRP-2-FITC+pR60-TRITC • 6. TRP-2181-188-FITC+CpG-ODN-Cy5 • 7. pR60-TRITC+CpG-ODN 1668-Cy5 • 8. TRP-2 181-188-FITC+pR 60-TRITC+CpG-ODN 1668-Cy5
On day 0 mice were injected subcutaneously into the right flank with a total volume of 100 μl containing the above mentioned compounds. Animals were sacrificed at day 4 after injection and photos were taken from the injection sites (FIG. 3).

human dendritic cells = assay: Polyinosinic-polycytidylic acid-induced cytokine production by human dendritic cells; assay type: cell-based; conditions: human dendritic cells in vitro
[2] = test system: mouse bone marrow-derived CD11c+ dendritic cells; assay: Cytokine production by dendritic cells incubated with poly-L-arginine and/or CpG-ODN (example 5); assay type: cell-based; conditions: CD11c+ dendritic cells incubated in vitro
Experimental: In parallel, in vitro studies were performed to clarify whether the complexation of CpG-ODN by poly-L-arginine can also directly influence the stimulation of mouse bone marrow-derived CD11c^+ dendritic cells by CpG-ODN concerning the production of TNF-α and IL-6. For this purpose, CD11c^+ dendritic cells were incubated either with poly-L-arginine, CpG-ODN or the combination of poly-L-arginine and CpG-ODN (example 5). The levels of TNF-a and IL-6 were determined in the supernatants derived from these cultures.

| Substance | TRP-2 peptide-FITC detectable at the injection site [1] | polyinosinic-polycytidylic acid-induced production of pro-inflammatory cytokines (human dendritic cells) | IL-6 in culture supernatants [2] | TNF-α in culture supernatants [2] |
| --- | --- | --- | --- | --- |
| TRP-2181-188-peptide-FITC: FITC-labeled TRP-2-Peptide (VYDFFVWL), MHC class I (H-2Kb)-restricted epitope of mouse tyrosinase related protein-2 (not fully specified (N-terminus); also: FITC label; UniProt P29812 181-188, looked up, fragment) | not detectable at the injection site at day 4 |  |  |  |
| Poly-L-Arginine |  | inhibits | neither TNF-α nor IL-6 were detectable | neither TNF-α nor IL-6 were detectable |

From patent US7244438B2, “Uses for polycationic compounds” (Intercell AG, priority 2001, dated 2007)
